Results from patent publication US12540141B2, “Spiropyrrolidine derived antiviral agents” (priority 2020, dated 2026).

These molecules were tested against SARS-CoV-2 3CL-protease (Severe acute respiratory syndrome coronavirus 2, UniProt P0DTD1) (assay: SARS-CoV-2 3C-Like (3CL) Protease Fluorescence Assay (FRET)). Conditions: SARS-CoV-2 3CL-protease 10 nM, 30 min preincubation at RT, substrate 40 μM.
Type: biochemical
With `CC(C)C[C@@H](O)C(=O)N(C)[C@@H](CC1CC1)C(=O)N1C[C@]2(C[C@H]1C#N)C(=O)Nc1ccccc12` [Example 424] the IC50 was < 100 nM.
In the case of `CN(C(=O)[C@H](O)Cc1ccc(F)cc1)[C@@H](CC1CC1)C(=O)N1C[C@]2(C[C@H]1C#N)C(=O)Nc1ccccc12` [Example 423], the IC50 is reported as < 100 nM.
With `CC(C)(C)C[C@H](NC(=O)c1cnn(CC(F)(F)F)c1)C(=O)N1C[C@]2(C[C@H]1C#N)C(=O)Nc1ccccc12` [Example 144] the IC50 was < 100 nM.
In the case of `CC(C)C[C@@H](C(=O)N1C[C@]2(C[C@H]1C(O)S(=O)(=O)O)C(=O)Nc1ccccc12)N(C)C(=O)c1cc2c(F)cc(F)c(F)c2[nH]1` (some centres unmarked) [Example 154], the IC50 is reported as < 100 nM.
In the case of `Cc1ccnc2[nH]c(C(=O)N(C)[C@@H](CC3CC3)C(=O)N3C[C@]4(C[C@H]3C#N)C(=O)Nc3ccc(Cl)cc34)cc12` [Example 460], the IC50 is reported as < 100 nM.
With `CC(C)C[C@@H](C(=O)N1C[C@]2(C[C@H]1C#N)C(=O)Nc1ccccc12)N(C)C(=O)c1cc(F)c2nn(C)cc2c1` [Example 309] the IC50 was < 100 nM.
For `CC(C)C[C@@H](C(=O)N1C[C@]2(C[C@H]1C#N)C(=O)Nc1ccc(-c3cccnc3)cc12)N(C)C(=O)c1cc2c(F)cc(F)cc2[nH]1` [Example 506], the IC50 was < 100 nM.
In the case of `CC(C)C[C@@H](C(=O)N1C[C@]2(C[C@H]1C#N)C(=O)Nc1ccccc12)N(C)C(=O)c1cccc(OC(F)F)c1` [Example 188], the IC50 is reported as < 100 nM.
With `CC(C)C[C@@H](C(=O)N1C[C@]2(C[C@H]1C#N)C(=O)Nc1ccccc12)N(C)C(=O)c1ccc2c(Br)cccc2n1` [Example 231] the IC50 was 100 to 1000 nM.
With `CC(C)C[C@@H](C(=O)N1C[C@]2(C[C@H]1C#N)C(=O)Nc1ccccc12)N(C)C(=O)c1cnc2ccccc2n1` [Example 298] the IC50 was 100 to 1000 nM.
For `CC(C)(C)C[C@H](NC(=O)c1cnn(-c2ccc(C(F)(F)F)cc2)c1)C(=O)N1C[C@]2(C[C@H]1C#N)C(=O)Nc1ccccc12` [Example 145], the IC50 was < 100 nM.
Molecule `CC(C)C[C@@H](C(=O)N1C[C@]2(C[C@H]1C#N)C(=O)Nc1ccccc12)N(C)C(=O)c1ccc2cccnc2c1O` [Example 285] has an IC50 of 100 to 1000 nM.
`CC(C)C[C@@H](C(=O)N1C[C@]2(C[C@H]1C#N)C(=O)Nc1ccc(-c3ccc(F)cc3)cc12)N(C)C(=O)c1cc2c(F)cc(F)cc2[nH]1` [Example 511] was tested, and the IC50 was < 100 nM.
`Cc1cccc2c1[C@@]1(C[C@@H](C#N)N(C(=O)[C@H](CC(C)C)NC(=O)c3cc4c(F)cccc4[nH]3)C1)C(=O)N2` [Example 529] showed an IC50 of 100 to 1000 nM.
In the case of `[2H]C([2H])([2H])N(C(=O)C1(c2ccncc2)CC1)[C@@H](CC(C)(C)F)C(=O)N1C[C@]2(C[C@H]1C#N)C(=O)Nc1ccc(Cl)cc12` [Example 475], the IC50 is reported as < 100 nM.
`CC(C)C[C@@H](C(=O)N1C[C@]2(C[C@H]1C#N)C(=O)Nc1ccccc12)N(C)C(=O)c1cnc2cccnc2c1` [Example 302] gave an IC50 of 100 to 1000 nM.
Molecule `CC(C)C[C@@H](C(=O)N1C[C@]2(C[C@H]1C#N)C(=O)Nc1ccccc12)N(C)C(=O)c1ccncc1` [Example 194] has an IC50 of 100 to 1000 nM.
`CC(C)(F)C[C@H](NC(=O)COc1ccc(F)cc1F)C(=O)N1C[C@]2(C[C@H]1C#N)C(=O)Nc1ccc(Cl)cc12` [Example 445] was tested, and the IC50 was 100 to 1000 nM.
In the case of `CN(C(=O)CCN1CCCCC1)[C@@H](CC(C)(C)F)C(=O)N1C[C@]2(C[C@H]1C#N)C(=O)Nc1ccccc12` [Example 542], the IC50 is reported as < 100 nM.
For `[2H]C([2H])([2H])N(C(=O)c1cn(C2CC2)nn1)[C@@H](Cc1ccc(F)cc1)C(=O)N1C[C@]2(C[C@H]1C#N)C(=O)Nc1ccccc12` [Example 391], the IC50 was < 100 nM.
`CC(C)C[C@@H](C(=O)N1C[C@]2(C[C@H]1C#N)C(=O)Nc1ccccc12)N(C)C(=O)c1cc2cncnc2[nH]1` [Example 489] was tested, and the IC50 was < 100 nM.
`Cc1ccc2cc(C(=O)N(C)[C@@H](CC(C)C)C(=O)N3C[C@]4(C[C@H]3C#N)C(=O)Nc3ccccc34)[nH]c2n1` [Example 465] was tested, and the IC50 was < 100 nM.
`CC(C)C[C@@H](C(=O)N1C[C@]2(C[C@H]1C#N)C(=O)Nc1ccccc12)N(C)C(=O)c1ccc2ncccc2c1` [Example 210] was tested, and the IC50 was < 100 nM.
For `[2H]C([2H])([2H])N(C(=O)c1cnn(-c2ccc(C(F)(F)F)cc2)c1)[C@@H](CC1CC1)C(=O)N1C[C@]2(C[C@H]1C#N)C(=O)Nc1ccccc12` [Example 396], the IC50 was < 100 nM.
For `CC(C)(C)C[C@H](NC(=O)NC1CCCCC1)C(=O)N1C[C@]2(C[C@H]1C#N)C(=O)Nc1ccccc12` [Example 440], the IC50 was < 100 nM.
With `Cc1c(C(=O)N[C@@H](CC2CC2)C(=O)N2C[C@]3(C[C@H]2C#N)C(=O)Nc2ccc(F)cc23)sc2cccc(F)c12` [Example 521] the IC50 was < 100 nM.
With `CC(C)C[C@@H](C(=O)N1C[C@]2(C[C@H]1C#N)C(=O)Nc1ccccc12)N(C)C(=O)c1ccc2c(=O)[nH]ccc2c1` [Example 276] the IC50 was < 100 nM.
With `CC(C)C[C@@H](C(=O)N1C[C@]2(C[C@H]1C#N)C(=O)Nc1ccc(-n3cc(C4CC4)nn3)cc12)N(C)C(=O)c1cc2c(F)cc(F)cc2[nH]1` [Example 505, N—((S)-1-((3R,5′S)-5′-cyano-5-(4-cyclopropyl-1H-1,2,3-triazol-1-yl)-2-oxospiro[indoline-3,3′-pyrrolidin]-1′-yl)-4-methyl-1-oxopentan-2-yl)-4,6-difluoro-N-methyl-1H-indole-2-carboxamide] the IC50 was < 100 nM.
`CN(C(=O)Cc1cnccn1)[C@@H](CC(C)(C)F)C(=O)N1C[C@]2(C[C@H]1C#N)C(=O)Nc1ccc(Cl)cc12` [Example 484] was tested, and the IC50 was < 100 nM.
Molecule `CC(C)C[C@@H](C(=O)N1C[C@]2(C[C@H]1C#N)C(=O)Nc1ccccc12)N(C)C(=O)c1cnc2ccccc2c1O` [Example 260] has an IC50 of 100 to 1000 nM.
`CC(C)C[C@@H](C(=O)N1C[C@]2(C[C@H]1C#N)C(=O)Nc1ccccc12)N(C)C(=O)c1ccc2nccnc2c1` [Example 297] gave an IC50 of 100 to 1000 nM.
For `CC(C)C[C@@H](C(=O)N1C[C@]2(C[C@H]1C#N)C(=O)Nc1ccccc12)N(C)C(=O)c1cccc2ccccc12` [Example 241], the IC50 was < 100 nM.
With `CC(C)C[C@@H](C(=O)N1C[C@]2(C[C@H]1C#N)C(=O)Nc1ccccc12)N(C)C(=O)c1cc(Cl)cc(C#N)c1` [Example 187] the IC50 was < 100 nM.
In the case of `CN(C(=O)c1cnn(C2CCCCC2)c1)[C@@H](CC1CC1)C(=O)N1C[C@]2(C[C@H]1C#N)C(=O)Nc1ccccc12` [Example 411], the IC50 is reported as < 100 nM.
Work on `CC(C)C[C@@H](C(=O)N1C[C@]2(C[C@H]1C#N)C(=O)Nc1ccccc12)N(C)C(=O)c1ccc2nc(-c3ccccc3)ccc2c1` [Example 257] yielded an IC50 of 100 to 1000 nM.
For `CC(C)C[C@@H](C(=O)N1C[C@]2(C[C@H]1C#N)C(=O)Nc1ccccc12)N(C)C(=O)c1nc2cc(F)ccc2[nH]1` [Example 250], the IC50 was < 100 nM.
With `CC(C)C[C@@H](C(=O)N1C[C@]2(C[C@H]1C#N)C(=O)Nc1ccccc12)N(C)C(=O)c1ccc(F)c(C(F)(F)F)c1` [Example 177] the IC50 was < 100 nM.
`CC(C)C[C@@H](C(=O)N1C[C@]2(C[C@H]1C#N)C(=O)Nc1ccccc12)N(C)C(=O)c1ccc2cc(F)ccc2c1` [Example 222] gave an IC50 of 100 to 1000 nM.
For `CC(C)C[C@@H](C(=O)N1C[C@]2(C[C@H]1C#N)C(=O)Nc1ccccc12)N(C)C(=O)c1ccc2cnccc2c1` [Example 216], the IC50 was < 100 nM.
With `CC(C)C[C@@H](C(=O)N1C[C@]2(C[C@H]1C#N)C(=O)Nc1ccccc12)N(C)C(=O)Cc1ccccc1` [Example 226] the IC50 was < 100 nM.
For `N#C[C@@H]1C[C@@]2(CN1C(=O)[C@H](CC1CC1)NC(=O)OCc1ccc(F)cc1F)C(=O)Nc1ccc(Cl)cc12` [Example 493], the IC50 was < 100 nM.
For `Cc1ccc2cc(C(=O)N(C)[C@@H](CC(C)(C)F)C(=O)N3C[C@]4(C[C@H]3C#N)C(=O)Nc3ccccc34)[nH]c2n1` [Example 467], the IC50 was < 100 nM.
With `CC(C)C[C@@H](C(=O)N1C[C@]2(C[C@H]1C#N)C(=O)Nc1ccccc12)N(C)C(=O)c1ccc2ncc(F)cc2c1` [Example 235] the IC50 was < 100 nM.
In the case of `N#C[C@@H]1C[C@@]2(CN1C(=O)[C@H](CC1CC1)NC(=O)OCc1c(F)cccc1F)C(=O)Nc1ccc(Cl)cc12` [Example 492, 2,6-difluorobenzyl ((S)-1-((3R,5′S)-5-chloro-5′-cyano-2-oxospiro[indoline-3,3′-pyrrolidin]-1′-yl)-3-cyclopropyl-1-oxopropan-2-yl)carbamate], the IC50 is reported as < 100 nM.
`N#C[C@@H]1C[C@@]2(CN1C(=O)[C@H](Cc1ccc(F)cc1)NC(=O)c1cc3c(F)cc(F)cc3[nH]1)C(=O)Nc1ccc(Cl)cc12` [Example 452] was tested, and the IC50 was < 100 nM.
For `CC(C)C[C@@H](C(=O)N1C[C@]2(C[C@H]1C#N)C(=O)Nc1ccccc12)N(C)C(=O)c1cncc(C(F)(F)F)c1` [Example 195], the IC50 was < 100 nM.
With `CN(C(=O)[C@H](O)c1ccccc1F)[C@@H](CC1CC1)C(=O)N1C[C@]2(C[C@H]1C#N)C(=O)Nc1ccccc12` [Example 425] the IC50 was < 100 nM.
In the case of `CC(C)C[C@@H](C(=O)N1C[C@]2(C[C@H]1C#N)C(=O)Nc1ccccc12)N(C)C(=O)c1ccc2ccncc2c1` [Example 217], the IC50 is reported as 100 to 1000 nM.
`C[C@@H](C(=O)N(C)[C@@H](CC(C)(C)C)C(=O)N1C[C@]2(C[C@H]1C#N)C(=O)Nc1ccccc12)c1cnn(C)c1` [Example 372] was tested, and the IC50 was < 100 nM.
In the case of `CC(C)C[C@@H](C(=O)N1C[C@]2(C[C@H]1C#N)C(=O)Nc1ccccc12)N(C)C(=O)c1ccc(F)cn1` [Example 198], the IC50 is reported as 100 to 1000 nM.
For `Cc1ccc2cc(C(=O)N(C)[C@@H](CC(C)(C)F)C(=O)N3C[C@]4(C[C@H]3C#N)C(=O)Nc3ccc(Cl)cc34)[nH]c2n1` [Example 471], the IC50 was < 100 nM.
In the case of `[2H]C([2H])([2H])N(C(=O)c1nc(-c2ccccc2)c[nH]1)[C@@H](CC(C)(C)C)C(=O)N1C[C@]2(C[C@H]1C#N)C(=O)Nc1ccccc12` [Example 376], the IC50 is reported as < 100 nM.
With `CC(C)C[C@@H](C(=O)N1C[C@]2(C[C@H]1C#N)C(=O)Nc1ccccc12)N(C)C(=O)c1cc(Cl)c(F)cc1F` [Example 171] the IC50 was < 100 nM.
`[2H]C([2H])([2H])N(C(=O)[C@H](O)c1ccccc1)[C@@H](CC(C)(C)C)C(=O)N1C[C@]2(C[C@H]1C#N)C(=O)Nc1ccccc12` [Example 428] was tested, and the IC50 was < 100 nM.
`CC(C)C[C@H](NC(=O)c1ccc(-c2ccccc2)[nH]1)C(=O)N1C[C@]2(C[C@H]1C#N)C(=O)Nc1ccccc12` [Example 151] was tested, and the IC50 was > 1000 nM.
In the case of `CC(C)C[C@H](NC(=O)c1cc2c(F)cccc2[nH]1)C(=O)N1C[C@]2(C[C@H]1C#N)C(=O)Nc1cc(F)ccc12` [Example 530], the IC50 is reported as < 100 nM.
